Experiment: recombinant UMI read abundance after kanamycin selection (control-corrected) (log10(CPM+1)); higher = more efficient recombination; extreme values may be limits of the assay; sequences stand for … in AGTGCAGAGAAAATCGGCCAGTTTTCTCTGCCTGCAGTCCGCATGCCGTGGGACCCCTTGGGTTCTAACCTGTTGCCTAGATTTATGCAGCGGACTGCCTTTCTCCCAAAGTGATAAACCGG…AGGTTGGTTTCACT; site = the 11-nt donor
Method in brief: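 Two replicates each of selected and unselected plating were used in this pooled Escherichia coli screen of donor and donor-binding-loop pairs for the IS621 bridge recombinase. Selection was with IPTG (0.07 mM) and kanamycin. Counts of recombinant UMIs, amplified across the donor–target junction, were converted to CPM, averaged, scaled by control-derived factors and reported as log10(CPM+1).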
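Note: IS621 bridge recombinase in Escherichia coli cells against a fixed T5 target plasmid.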

Sequence	recombinant UMI read abundance (log10)
CCCGAGTCATGGACCGGTTTTCCCGGTAATCCGTATTTGCC (site CCCGAGTCTGG)	0.938
CCCGGCCCATGGACCGGTTTTCCCGGTAATCCGTATTTGCA (site CCCGGACCTTG)	0.00734
CCCGGCCCATGGACCGGTTTTCCCGGTAATCCGTATTTGCA (site CCCGGCCCTTG)	0
CCCGGCCCATGGACCGGTTTTCCCGGTAATCCGTATTTGCA (site CCCGGGCCTTG)	0
CCCGGCCCATGGACCGGTTTTCCCGGTAATCCGTATTTGCA (site CCCGGTCCTTG)	0.0145
CCCGGTTCATGGACCGGTTTTCCCGGTAATCCGTATTTGCA (site CCCGGTACTTG)	0
CCCGGTTCATGGACCGGTTTTCCCGGTAATCCGTATTTGCA (site CCCGGTCCTTG)	0
CCCGGTTCATGGACCGGTTTTCCCGGTAATCCGTATTTGCA (site CCCGGTGCTTG)	0.0148
CCCGGTTCATGGACCGGTTTTCCCGGTAATCCGTATTTGCA (site CCCGGTTCTTG)	1.83
CCCGTACCATGGACCGGTTTTCCCGGTAATCCGTATTTGCT (site CCCGTACCTAG)	0
CCCGTCGCATGGACCGGTTTTCCCGGTAATCCGTATTTGCC (site CCCGTCGCTGG)	1.45
CCCGTCTCATGGACCGGTTTTCCCGGTAATCCGTATTTGGG (site CCCATCTCTCC)	0.0267
CCCGTCTCATGGACCGGTTTTCCCGGTAATCCGTATTTGGG (site CCCCTCTCTCC)	0.0424
CCCGTCTCATGGACCGGTTTTCCCGGTAATCCGTATTTGGG (site CCCGTCTCTCC)	0.0026
CCCGTCTCATGGACCGGTTTTCCCGGTAATCCGTATTTGGG (site CCCTTCTCTCC)	0.018
CCCTAACCATGGACCGGTTTTCCCGGTAATCCGTATTTGCT (site CCCTAACCTAG)	0
CCCTACTCATGGACCGGTTTTCCCGGTAATCCGTATTTGGG (site CCCTACTCTCC)	0.346
CCCTACTCATGGACCGGTTTTCCCGGTAATCCGTATTTGGG (site CCCTCCTCTCC)	0.00345
CCCTACTCATGGACCGGTTTTCCCGGTAATCCGTATTTGGG (site CCCTGCTCTCC)	0.0112
CCCTACTCATGGACCGGTTTTCCCGGTAATCCGTATTTGGG (site CCCTTCTCTCC)	0.00875
CCCTAGCCATGGACCGGTTTTCCCGGTAATCCGTATTTGGC (site CCCTAGCCTGA)	0
CCCTAGCCATGGACCGGTTTTCCCGGTAATCCGTATTTGGC (site CCCTAGCCTGC)	0
CCCTAGCCATGGACCGGTTTTCCCGGTAATCCGTATTTGGC (site CCCTAGCCTGG)	0

Sequence	recombinant UMI read abundance (log10)
CCCTAGCCATGGACCGGTTTTCCCGGTAATCCGTATTTGGC (site CCCTAGCCTGT)	0
CCCTATCCATGGACCGGTTTTCCCGGTAATCCGTATTTGAC (site CCCTATCCTGT)	0
CCCTATTCATGGACCGGTTTTCCCGGTAATCCGTATTTGCT (site CCCTATTCTAG)	1.7
CCCTCCTCATGGACCGGTTTTCCCGGTAATCCGTATTTGCC (site CACTCCTCTGG)	0.544
CCCTCCTCATGGACCGGTTTTCCCGGTAATCCGTATTTGCC (site CCCTCCTCTGG)	2.25
CCCTCCTCATGGACCGGTTTTCCCGGTAATCCGTATTTGCC (site CGCTCCTCTGG)	0
CCCTCCTCATGGACCGGTTTTCCCGGTAATCCGTATTTGCC (site CTCTCCTCTGG)	0.448
CCCTCGCCATGGACCGGTTTTCCCGGTAATCCGTATTTGCC (site CCCTAGCCTGG)	0
CCCTCGCCATGGACCGGTTTTCCCGGTAATCCGTATTTGCC (site CCCTCGCCTGG)	0
CCCTCGCCATGGACCGGTTTTCCCGGTAATCCGTATTTGCC (site CCCTGGCCTGG)	0
CCCTCGCCATGGACCGGTTTTCCCGGTAATCCGTATTTGCC (site CCCTTGCCTGG)	0.011
CCCTCGGCATGGACCGGTTTTCCCGGTAATCCGTATTTGCT (site CCCTCGGCTAG)	0.0794
CCCTGTTCATGGACCGGTTTTCCCGGTAATCCGTATTTGGG (site CCCTGTTCTCC)	0.00741
CCCTTCGCATGGACCGGTTTTCCCGGTAATCCGTATTTGGG (site CCCTTCACTCC)	0.0167
CCCTTCGCATGGACCGGTTTTCCCGGTAATCCGTATTTGGG (site CCCTTCCCTCC)	0
CCCTTCGCATGGACCGGTTTTCCCGGTAATCCGTATTTGGG (site CCCTTCGCTCC)	0.0148
CCCTTCGCATGGACCGGTTTTCCCGGTAATCCGTATTTGGG (site CCCTTCTCTCC)	0.0112
CCGAAAGCATGGACCGGTTTTCCCGGTAATCCGTATTTGAT (site CCAAAAGCTAT)	0.501
CCGAAAGCATGGACCGGTTTTCCCGGTAATCCGTATTTGAT (site CCCAAAGCTAT)	0
CCGAAAGCATGGACCGGTTTTCCCGGTAATCCGTATTTGAT (site CCGAAAGCTAT)	0.975
CCGAAAGCATGGACCGGTTTTCCCGGTAATCCGTATTTGAT (site CCTAAAGCTAT)	0.0026
CCGAAGACATGGACCGGTTTTCCCGGTAATCCGTATTTGGC (site CCGAAGACTGC)	0
CCGAATCCATGGACCGGTTTTCCCGGTAATCCGTATTTGTA (site CCGAATCCTTA)	0

Sequence	recombinant UMI read abundance (log10)
CCGAATCCATGGACCGGTTTTCCCGGTAATCCGTATTTGTA (site CGGAATCCTAA)	0.00532
CCGAATGCATGGACCGGTTTTCCCGGTAATCCGTATTTGAT (site CCGAATGCTAT)	0.919
CCGAATTCATGGACCGGTTTTCCCGGTAATCCGTATTTGTT (site CCGAATTCTAA)	0
CCGAATTCATGGACCGGTTTTCCCGGTAATCCGTATTTGTT (site CGGAATCCTAA)	0.00782
CCGAGCGCATGGACCGGTTTTCCCGGTAATCCGTATTTGAA (site CCGAGCGCTTT)	0.998
CCGAGCTCATGGACCGGTTTTCCCGGTAATCCGTATTTGTA (site CCGAGCTCTTA)	0.496
CCGAGGCCATGGACCGGTTTTCCCGGTAATCCGTATTTGGC (site CCGAGGCCTGC)	0
CCGATAGCATGGACCGGTTTTCCCGGTAATCCGTATTTGTG (site CCGATAGCTCA)	0.0444
CCGATAGCATGGACCGGTTTTCCCGGTAATCCGTATTTGTG (site CCGCTAGCTCA)	0.0063
CCGATAGCATGGACCGGTTTTCCCGGTAATCCGTATTTGTG (site CCGGTAGCTCA)	0.00966
CCGATAGCATGGACCGGTTTTCCCGGTAATCCGTATTTGTG (site CCGTTAGCTCA)	0.0148
CCGATATCATGGACCGGTTTTCCCGGTAATCCGTATTTGGC (site CCGATATCTGC)	0.68
CCGATCTCATGGACCGGTTTTCCCGGTAATCCGTATTTGAG (site CCGATCTCTCT)	0.00289
CCGCACACATGGACCGGTTTTCCCGGTAATCCGTATTTGGT (site CCGCACACTAC)	0.509
CCGCACACATGGACCGGTTTTCCCGGTAATCCGTATTTGTA (site CCACACACTTA)	0.587
CCGCACACATGGACCGGTTTTCCCGGTAATCCGTATTTGTA (site CCCCACACTTA)	0.0105
CCGCACACATGGACCGGTTTTCCCGGTAATCCGTATTTGTA (site CCGCACACTTA)	0.895
CCGCACACATGGACCGGTTTTCCCGGTAATCCGTATTTGTA (site CCTCACACTTA)	0.00457
CCGCATGCATGGACCGGTTTTCCCGGTAATCCGTATTTGCT (site CCGCATGCTAG)	0.291
CCGCATTCATGGACCGGTTTTCCCGGTAATCCGTATTTGCG (site CCGCATTCTCG)	0.57
CCGCCAGCATGGACCGGTTTTCCCGGTAATCCGTATTTGGG (site CCGCCAGCTCC)	0
CCGCCTCCATGGACCGGTTTTCCCGGTAATCCGTATTTGGC (site CCGCCTCCTGC)	0
